In patent publication US20250154112A1, “A PREPARATION OF QUINAZOLINEDIONES AND USE THEREOF” (COUNCIL OF SCIENTIFIC AND INDUSTRIAL RESEARCH AN INDIAN …, priority 2021, published 2025):

Columns and labels:
[1] = test system: ATGL; assay: Western blot of ATGL level in HepG2 cells after compound treatment; assay type: cell-based; conditions: 24 hours; for ATGL level (Western Blot): 50 nM to 5 μM dose dependent, with respect to control; for induction of ATGL (Western Blot): 5 μM
Procedure: (§1) HepG2 cells were treated with the compounds 5, 8, 11, 59, 62, 91, 94 (50 nM, 100 nM, 200 nM, 500 nM, 1 μM and 5 μM for dose dependent assays) for 24 hours. After removing media from the cells, the wells were washed with 1×PBS twice to remove any remnant media. Cells were then lysed in lysis buffer containing 50 mM Tris-HCl (pH 7.4), 100 mM NaCl, 1 mM EDTA, 1 mM EGTA, 1% Triton X-100 and protease inhibitor cocktail (Millipore, Billierica, MA, USA). Following centrifugation at 20,000 g for 20 minutes, the protein solution was extracted from the cells. Protein was estimated using Bradford assay. Bradford's reagent (BioRad) was diluted in 1:4 ratio in double distilled water. 2 μl of protein sample was added to 100 μl of the reagent and absorbance was measured at 595 nm. 30 μg of protein was diluted in lysis buffer. 1X loading buffer diluted from 5X stock containing 250 mM Tris-HCl (pH 6.8), 10% SDS, 50% glycerol, 0.1% bromophenol Blue and 10% β-mercaptoethanol was added. The protein samples were then heated at 95° C. for 10 minutes, cooled and centrifuged at 12,000 g for 2 minutes prior to loading.
For western blotting, the proteins were resolved in 10% SDS PAGE (discontinuous buffer system). 1X running buffer containing SDS, Tris Base and Glycine was used to run the gel at 80V for approximately 2 hours. Transfer was done using PVDF membrane (Millipore) having pore size of 0.45 μm. 1X transfer buffer containing Tris-Base, Glycine and 20% methanol was used for wet transfer. Transfer was done at 90V for 3 hours. Following transfer, the PVDF membrane containing the proteins were washed in 1×PBST comprising of 1×PBS and 1% Tween 20 (Sigma Aldrich). The membrane was then incubated for 1 hour at room temperature in 5% skim milk powder to block the non-specific sites. Following multiple washes with 1×PBST to wash away any remaining blocking buffer, the required primary antibody (COP1 [BethylLaboraties], ATGL [Cell Signalling Technology] or Actin[Cell Signalling Technology]) prepared with 1×PBST, 1% Bovine Serum Albumin and 0.04% Sodium Azide was added to the membrane and incubated overnight at 4° C. The next day, the membrane was again washed multiple times with 1×PBST to remove any unbound primary antibody. The membrane was then incubated with goat anti-rabbit secondary antibody (Genei) for 1 hour at room temperature and washed again for multiple times with 1×PBST. The membrane was then developed using Clarity™ ECL Western Blotting Substrate (BioRad) and viewed in ChemiDoc (BioRad).
as §1, with “62, 65,” for “62,”, “at” for “(50 nM, 100 nM, 200 nM, 500 nM, 1 μM and”, “μM” for “μM for dose dependent assays)”, “cocktail 1” for “cocktail”

[2] = Metabolic stability using human liver microsomes (HLM); assay type: in vitro ADME
Procedure: 1 mM stock solution of test compound was prepared in DMSO and diluted with Acetonitrile:Water (1:1) to get a 100 μM working concentration. 100 mL of Milli Q water was added to K2HPO4 (1.398 g) and KH2PO4 (0.27 g) to get final pH 7.4 solution of potassium phosphate buffer. […] The above mixture was pre incubated for 15 minutes at 37° C. After pre incubation, 32.5 μL of the mixture was added to 17.5 μL of buffer, this was incubated for 60 minutes at 37° C. [60 min Without Cofactor (NADPH)]. 16.25 μL of the pre incubated mixture and 8.75 μL of cofactor was added to 150 μL of acetonitrile containing internal standard [0 min Sample]. 62 μL of cofactor was added to remaining pre incubation mixture [Incubation mixture]. 25 μL of incubation mixture at 0, 5, 15, 30, 60 min and 60 min without cofactor were precipitated with 150 μL of acetonitrile containing internal standard, vortexed and centrifuged at 4000 rpm at 4° C. for 20 minutes. 120 μL of supernatant was diluted with 120 μL of water and analyzed by LC-MS/MS [sample preparation].

[3] = test system: HepG2 cells; assay: Confocal microscopy of lipid droplets in oleate induced HepG2 cells; assay type: cell-based; conditions: 250 μM oleate induction, 100 nM and 500 nM, 24 hours
Procedure: To select the compounds capable of inhibiting the ubiquitination of ATGL by COP1 by targeting the VP motif, confocal microscopy was performed with the provided molecules. If the compound was effective in inhibiting the interaction, there would have been a reduction in the number of fat droplets in the cells after treatment. […] With this rationale in mind, HepG2 cells were induced to accumulate lipid droplets after treatment with 250 μM of oleate and 10 μM of the specific compounds were added. The potential of the compounds to bring about a reduction in the number of fat droplets was then checked by comparison with oleate induced cells by counting number of droplets of approximately 20 cells from each treatment and calculating the average number of lipid droplets of each cell. The selected compounds were then subjected to dose dependent treatments and the ones which could maintain its potency to reduce fat droplets at lower doses were then selected for western blot analysis. The compound which could reduce the number of fat droplets in the cells were expected to raise the levels of ATGL since they were likely to deter COP1 from ubiquitinating ATGL. This increase was visible only in the protein level and gene expression was likely to remain unchanged since ubiquitination is a […] modification. […]

SMILES	ATGL level (Western Blot) [1]	induction of ATGL (Western Blot) [1]	% QH (Well stirred model) [2] [%]	number of lipid droplets [3]
COCCn1c(=O)c2cc(NC(=O)Nc3cccc(C(C)=O)c3)ccc2n(CCCN2CCOCC2)c1=O [Compound 94, 1-(3-acetylphenyl)-3-(3-(2-methoxyethyl)-1-(3-morpholinopropyl)-2,4-dioxo-1,2,3,4-tetrahydroquinazolin-6-yl)urea]	increased ATGL level	ability to induce ATGL	59.60	–
COCCn1c(=O)c2cc(NC(=O)Nc3cccc(C(C)=O)c3)ccc2n(CCN2CCCCC2)c1=O [Compound 62, 1-(3-acetylphenyl)-3-(3-(2-methoxyethyl)-2,4-dioxo-1-(2-(piperidin-1-yl)ethyl)-1,2,3,4-tetrahydroquinazolin-6-yl)urea]	increased ATGL level	ability to induce ATGL	56.74	decrease in the number of lipid droplets
COCCn1c(=O)[nH]c2ccc(NC(=O)Nc3cccc(C(C)=O)c3)cc2c1=O [Compound 5, 1-(3-acetylphenyl)-3-(3-(2-methoxyethyl)-2,4-dioxo-1,2,3,4-tetrahydroquinazolin-6-yl)urea]	increased ATGL level	ability to induce ATGL	7.60	–
